This is an account of results in US11739098B2 (BRISTOL-MYERS SQUIBB COMPANY, priority 2017, dated 2023).

Common to all, as to format: cell-based
One test addresses T1, human TLR7 (Homo sapiens, UniProt Q9NYK1).
T1 construct: host or cells: HEK-Blue cells (HEK293-derived reporter line)
T1 sequence (Q9NYK1 27-1049): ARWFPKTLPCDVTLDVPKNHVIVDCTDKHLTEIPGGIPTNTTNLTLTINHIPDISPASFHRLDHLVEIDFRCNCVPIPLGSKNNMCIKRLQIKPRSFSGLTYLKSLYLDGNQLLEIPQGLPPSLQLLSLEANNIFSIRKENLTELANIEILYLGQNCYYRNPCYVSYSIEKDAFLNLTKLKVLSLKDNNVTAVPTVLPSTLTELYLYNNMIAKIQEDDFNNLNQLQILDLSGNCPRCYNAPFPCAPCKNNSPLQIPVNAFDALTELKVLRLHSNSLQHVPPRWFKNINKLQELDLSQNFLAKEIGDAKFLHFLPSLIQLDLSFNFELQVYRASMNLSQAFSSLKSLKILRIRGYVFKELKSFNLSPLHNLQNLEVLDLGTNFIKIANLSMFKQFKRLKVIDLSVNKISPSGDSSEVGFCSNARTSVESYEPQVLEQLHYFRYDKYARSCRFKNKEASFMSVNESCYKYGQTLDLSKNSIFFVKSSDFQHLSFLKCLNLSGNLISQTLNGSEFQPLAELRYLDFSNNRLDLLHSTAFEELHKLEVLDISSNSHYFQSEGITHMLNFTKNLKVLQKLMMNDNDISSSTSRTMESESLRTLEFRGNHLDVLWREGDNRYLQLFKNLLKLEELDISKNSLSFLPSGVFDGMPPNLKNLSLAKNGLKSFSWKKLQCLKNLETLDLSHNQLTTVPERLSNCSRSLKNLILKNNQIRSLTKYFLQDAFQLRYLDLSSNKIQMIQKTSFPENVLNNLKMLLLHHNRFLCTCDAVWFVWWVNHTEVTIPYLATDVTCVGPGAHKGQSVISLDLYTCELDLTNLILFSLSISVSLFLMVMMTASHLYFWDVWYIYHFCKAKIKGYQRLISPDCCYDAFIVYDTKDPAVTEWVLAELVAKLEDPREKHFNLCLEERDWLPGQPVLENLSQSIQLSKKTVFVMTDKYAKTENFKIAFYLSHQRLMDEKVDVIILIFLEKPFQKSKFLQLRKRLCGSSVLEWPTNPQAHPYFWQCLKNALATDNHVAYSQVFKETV
Put plainly: TLR7 inhibition reporter assay (HEK-Blue cells, SEAP reporter, gardiquimod stimulation). The conditions noted are these: HEK-Blue cells overexpressing human TLR7, SEAP reporter, gardiquimod 7.5 μM. An outline of the steps:
(§1)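 Cells seeded per well (15000 TLR7, 20,000 TLR8, 25,000 TLR9); compound added over 0.05 nM–50 μM for 30 min at room temperature; agonist added (TLR7 gardiquimod 7.5 μM, TLR8 R848 15.9 μM, TLR9 ODN2006 5 nM); 22 h at 37 °C; SEAP measured; percent inhibition calculated.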

Another test deals with T2, human TLR8 (Homo sapiens, UniProt Q9NR97).
T2 construct: host or cells: HEK-Blue cells (HEK293-derived reporter line)
T2 sequence (Q9NR97 27-1041): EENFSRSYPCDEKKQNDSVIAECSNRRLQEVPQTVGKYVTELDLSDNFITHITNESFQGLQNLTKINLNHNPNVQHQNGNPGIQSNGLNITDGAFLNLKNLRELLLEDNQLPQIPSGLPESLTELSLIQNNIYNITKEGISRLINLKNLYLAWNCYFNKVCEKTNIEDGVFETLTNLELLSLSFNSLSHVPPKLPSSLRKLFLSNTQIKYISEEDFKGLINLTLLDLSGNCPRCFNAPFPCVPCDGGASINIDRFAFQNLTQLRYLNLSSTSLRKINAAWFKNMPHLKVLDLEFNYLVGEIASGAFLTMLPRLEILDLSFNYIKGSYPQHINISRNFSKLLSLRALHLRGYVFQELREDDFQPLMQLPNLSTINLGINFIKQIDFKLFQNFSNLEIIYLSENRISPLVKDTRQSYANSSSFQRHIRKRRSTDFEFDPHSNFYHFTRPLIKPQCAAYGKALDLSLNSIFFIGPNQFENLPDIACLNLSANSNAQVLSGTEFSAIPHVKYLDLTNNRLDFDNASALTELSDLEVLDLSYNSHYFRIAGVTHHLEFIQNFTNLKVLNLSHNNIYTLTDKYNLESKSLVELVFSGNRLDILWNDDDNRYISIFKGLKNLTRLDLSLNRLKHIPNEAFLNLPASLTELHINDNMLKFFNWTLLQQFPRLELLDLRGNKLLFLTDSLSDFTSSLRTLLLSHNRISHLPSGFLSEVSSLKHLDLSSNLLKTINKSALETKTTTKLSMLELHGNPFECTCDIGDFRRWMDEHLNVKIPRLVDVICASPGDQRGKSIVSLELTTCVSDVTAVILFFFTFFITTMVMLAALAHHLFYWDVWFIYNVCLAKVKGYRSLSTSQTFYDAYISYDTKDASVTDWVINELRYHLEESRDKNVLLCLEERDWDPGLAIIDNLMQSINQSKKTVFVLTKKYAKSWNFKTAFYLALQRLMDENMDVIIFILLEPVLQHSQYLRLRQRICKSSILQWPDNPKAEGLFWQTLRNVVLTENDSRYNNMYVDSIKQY
Put plainly: TLR8 inhibition reporter assay (HEK-Blue cells, SEAP reporter, R848 stimulation). The note with it: HEK-Blue cells overexpressing human TLR8, SEAP reporter, R848 15.9 μM. An outline of the steps:
as §1

Another test concerns the target T3, human TLR9 (Homo sapiens, UniProt Q9NR96).
T3 construct: host or cells: HEK-Blue cells (HEK293-derived reporter line)
T3 sequence (Q9NR96 26-1032): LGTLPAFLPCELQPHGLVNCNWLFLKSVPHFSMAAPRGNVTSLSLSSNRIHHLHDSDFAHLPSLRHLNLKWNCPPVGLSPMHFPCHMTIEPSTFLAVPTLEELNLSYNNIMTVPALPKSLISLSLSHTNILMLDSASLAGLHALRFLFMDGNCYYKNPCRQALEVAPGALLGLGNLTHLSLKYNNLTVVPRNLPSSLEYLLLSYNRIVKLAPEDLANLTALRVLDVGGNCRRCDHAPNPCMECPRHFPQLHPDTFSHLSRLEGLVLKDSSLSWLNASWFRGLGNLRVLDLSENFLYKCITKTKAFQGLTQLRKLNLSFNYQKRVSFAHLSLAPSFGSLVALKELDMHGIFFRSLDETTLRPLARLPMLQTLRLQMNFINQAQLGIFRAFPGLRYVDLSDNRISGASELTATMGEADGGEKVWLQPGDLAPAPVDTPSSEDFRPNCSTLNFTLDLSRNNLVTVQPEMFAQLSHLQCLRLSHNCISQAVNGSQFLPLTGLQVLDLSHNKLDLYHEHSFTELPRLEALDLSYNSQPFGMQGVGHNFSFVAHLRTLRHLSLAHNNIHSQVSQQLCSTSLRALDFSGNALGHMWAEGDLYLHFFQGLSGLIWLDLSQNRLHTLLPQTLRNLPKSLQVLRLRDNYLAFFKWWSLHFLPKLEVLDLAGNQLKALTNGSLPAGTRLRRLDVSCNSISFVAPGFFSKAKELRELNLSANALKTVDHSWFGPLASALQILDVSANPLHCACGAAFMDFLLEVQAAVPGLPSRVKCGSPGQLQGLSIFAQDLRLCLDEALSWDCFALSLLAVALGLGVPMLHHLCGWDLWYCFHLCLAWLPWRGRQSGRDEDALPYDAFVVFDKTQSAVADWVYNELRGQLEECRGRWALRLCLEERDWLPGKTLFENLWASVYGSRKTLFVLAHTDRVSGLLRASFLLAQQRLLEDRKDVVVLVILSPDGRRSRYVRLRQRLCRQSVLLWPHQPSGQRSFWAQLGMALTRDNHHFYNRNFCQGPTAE
Nature of the test: TLR9 inhibition reporter assay (HEK-Blue cells, SEAP reporter, ODN2006 stimulation). The note with it: HEK-Blue cells overexpressing human TLR9, SEAP reporter, ODN2006 5 nM. An outline of the steps:
as §1
(In a reporter assay the amount or activity of a reporter protein is the signal.)

The IC50 is the concentration needed to halve the response being measured. `Cc1ccnc2c1c(-c1[nH]c3ccc(C4CCN(C(=O)CN(C)C)CC4)cc3c1C(C)C)cn2C` [Example 457, 1-(4-(2-(1,4-dimethyl-1H-pyrrolo[2,3-b]pyridin-3-yl)-3-isopropyl-1H-indol-5-yl)piperidin-1-yl)-2-(dimethylamino)ethan-1-one]: the IC50 at human TLR7 is less than 100 nM; at human TLR8, less than 100 nM; on human TLR9 it was 1000 to 50000 nM.

Take `Cc1ccnc2[nH]cc(-c3[nH]c4ccc(C5CCN(C(=O)CN(C)C)CC5)cc4c3C(C)C)c12` [Example 458, 2-(dimethylamino)-1-(4-(3-isopropyl-2-(4-methyl-1H-pyrrolo[2,3-b]pyridin-3-yl)-1H-indol-5-yl)piperidin-1-yl)ethan-1-one]: the IC50 on human TLR7 is less than 100 nM; on human TLR8, 100 to 1000 nM; against human TLR9 it was 1000 to 50000 nM.

With `Cc1c(-c2[nH]c3ccc(C4CCN(C(=O)CN(C)C)CC4)cc3c2C(C)C)c2cccnc2n1C` [Example 459, 1-(4-(2-(1,2-dimethyl-1H-pyrrolo[2,3-b]pyridin-3-yl)-3-isopropyl-1H-indol-5-yl)piperidin-1-yl)-2-(dimethylamino)ethan-1-one], the IC50 against human TLR7 was less than 100 nM; on human TLR8, less than 100 nM; against human TLR9, 1000 to 50000 nM.

Turning to `COc1cc(-c2[nH]c3ccc(C4CCN(C(=O)CN(C)C)CC4)cc3c2C(C)C)nn2ncnc12` [Example 460, 2-(dimethylamino)-1-(4-(3-isopropyl-2-(8-methoxy-[1,2,4]triazolo[1,5-b]pyridazin-6-yl)-1H-indol-5-yl)piperidin-1-yl)ethan-1-one], the concentration for half-maximal inhibition (IC50) against human TLR7 is less than 100 nM; against human TLR8 it was less than 100 nM; on human TLR9 it was 1000 to 50000 nM.

`CCc1c(-c2ccnc3[nH]ncc23)[nH]c2ccc(C3CCN(C(=O)CN)CC3)cc12` [Example 461, 2-amino-1-(4-(3-ethyl-2-(1H-pyrazolo[3,4-b]pyridin-4-yl)-1H-indol-5-yl)piperidin-1-yl)ethan-1-one]: the figures for the IC50 at human TLR7, against human TLR8 and at human TLR9 were 100 to 1000 nM, less than 100 nM and 1000 to 50000 nM, respectively.

Consider `CCc1c(-c2ccnc3[nH]ncc23)[nH]c2ccc(C3CCN(C(=O)CNC)CC3)cc12` [Example 462, 1-(4-(3-ethyl-2-(1H-pyrazolo [3,4-b]pyridin-4-yl)-1H-indol-5-yl)piperidin-1-yl)-2-(methylamino)ethan-1-one], for which the results for the concentration for half-maximal inhibition (IC50) on human TLR7, on human TLR8 and against human TLR9 were less than 100 nM, less than 100 nM and 1000 to 50000 nM, respectively.

On to `CC(C)c1c(-c2cn(C)c3ncccc23)[nH]c2ccc(C3CCN(C(=O)CN(C)C)CC3)cc12` [Example 463, 2-(dimethylamino)-1-(4-(3-isopropyl-2-(1-methyl-1H-pyrrolo[2,3-b]pyridin-3-yl)-1H-indol-5-yl)piperidin-1-yl)ethan-1-one], for which the concentration for half-maximal inhibition (IC50) is less than 100 nM on human TLR7, less than 100 nM on human TLR8 and 1000 to 50000 nM on human TLR9.

For `CC(C)c1c(-c2ccc3cnnn3c2)[nH]c2ccc(C3CCN(C(=O)CN(C)C)CC3)cc12` [Example 464, 1-(4-(2-([1,2,3]triazolo[1,5-a]pyridin-6-yl)-3-isopropyl-1H-indol-5-yl)piperidin-1-yl)-2-(dimethylamino)ethan-1-one], the 50% inhibitory concentration (IC50) at human TLR7, at human TLR8 and against human TLR9 was 100 to 1000 nM throughout.

Take `CC(C)c1c(-c2ccn3nncc3c2)[nH]c2ccc(C3CCN(C(=O)CN(C)C)CC3)cc12` [Example 465, 1-(4-(2-([1,2,3]triazolo [1,5-a]pyridin-5-yl)-3-isopropyl-1H-indol-5-yl)piperidin-1-yl)-2-(dimethylamino)ethan-1-one]: the IC50 is less than 100 nM on human TLR7, 100 to 1000 nM against human TLR8 and 1000 to 50000 nM against human TLR9.

On to `CC(C)c1c(-c2ccn3cnnc3c2)[nH]c2ccc(C3CCN(C(=O)CN(C)C)CC3)cc12` [Example 466, 1-(4-(2-([1,2,4]triazolo[4,3-a]pyridin-7-yl)-3-isopropyl-1H-indol-5-yl)piperidin-1-yl)-2-(dimethylamino)ethan-1-one], for which the IC50 is less than 100 nM against human TLR7, 100 to 1000 nM on human TLR8 and 100 to 1000 nM at human TLR9.

Turning to `Cc1cc(-c2[nH]c3ccc(C4CCN(C(=O)CN(C)C)CC4)cc3c2C(C)C)cn2nncc12` [Example 467, 2-(dimethylamino)-1-(4-(3-isopropyl-2-(4-methyl-[1,2,3]triazolo[1,5-a]pyridin-6-yl)-1H-indol-5-yl)piperidin-1-yl)ethan-1-one], the values for the IC50 at human TLR7, against human TLR8 and at human TLR9 were 100 to 1000 nM, 1000 to 50000 nM and 1000 to 50000 nM, respectively.

For the molecule `Cc1c(-c2[nH]c3ccc(C4CCN(C(=O)CN(C)C)CC4)cc3c2C(C)C)cn2nnnc2c1C` [Example 468, 2-(dimethylamino)-1-(4-(2-(7,8-dimethyltetrazolo[1,5-a]pyridin-6-yl)-3-isopropyl-1H-indol-5-yl)piperidin-1-yl)ethan-1-one], the IC50 against human TLR7 was less than 100 nM; against human TLR8, less than 100 nM; at human TLR9 it was 1000 to 50000 nM.
